Patent US20070053934A1, “Polyvalent multimeric composition containing active polypeptides, pharmaceutical compositions and methods of using the same” (priority 2005, published 2007)
Where a SMILES comes first, the peptide text is derived from it. Bridges are numbered along the chain shown (N, C = ends). Roman numbers before positions name the chains, in order. Where no end group is shown, it is not given here. Side-chain parts run from the residue outwards. [ ]: non-standard residue; d: D form. βAla = NCCC(=O)O

Columns and labels:
fresh sheep erythrocytes [1] = assay: Hemolysis assay HD50 (Examples 1B and 2); format: cell-based; conditions: red cells of sheep
Procedure: Stock solutions of samples were prepared by the same procedure as in antibacterial assays. Hemolytic activity of monomeric peptides and multivalent ones were assessed on fresh sheep erythrocytes (Fitzgerald, Inc., MA) in 35 mM PBS buffer, 150 mM NaCl, pH 7.0. Peptide concentrations corresponding to 50% hemolysis were used as hemolytic dose (HD50) determined from dose-response curve (National Committee for Clinical Laboratory Standards. 2004, Methods for dilution antimicrobial susceptibility tests for bacteria that grow aerobically; sixth edition, approved standard M100-S14. National Committee for Clinical Laboratory Standards. Wayne, Pa.). Aliquots of cell suspension were mixed in eppendorf tubes with varying volumes of stocks and buffer for a total volume of 1 mL. Solutions containing same volume of DMSO without samples were used as control. These tubes were incubated at 37° C. for 1 hr, and then spun down at 3,000 rpm for 5 mins. The resulting supernatant was diluted by a factor of 40 in distilled water. The absorbances of the dilutions at 540 nm were measured in the Genesys 5 Spectrophotometer (Thermo Spectronic, Inc., NY). Zero hemolysis and 100% hemolysis controls were obtained by incubating the cells with buffer and 20% Tween, respectively. Hemolytic index (HI) was defined as HI=HD50/IC50. […]

E. Coli (D31) [2] = tested on: E. Coli (D31)
S Aureus (ATCC BAA-44) = conditions: mean of three experiments
[3] = tested on: B. anthracis (Sterne 34F2); conditions: mean of three experiments
fresh sheep erythrocytes [4] = format: cell-based; conditions: pH 7.2
Procedure: Hemolytic activity of model peptides was assessed on fresh sheep erythrocytes (Fitzgerald Inc., Concord, Mass.). Peptide concentrations yielding 50% hemolysis were used as hemolytic dose (HD50) determined from dose-response curves (Oren, Z., and Y. Shai. 1997. Selective lysis of bacteria but not mammalian cells by diastereomers of melittin: Structure-function study. Biochem. 36:1826-1835). […] The resulting supernatant was diluted by a factor of 40 in distilled water. The absorbances of the supernatant at λ=540 nm (OD540) were measured in the UV Spectrophotometer. Zero hemolysis and 100% hemolysis controls were obtained by incubating the cells with buffer and 1% Triton-X, respectively. Hemolytic index (HI) was defined as HI=HD50/IC50.

E. Coli (D31) [5] = conditions: read-out: IC50 E. coli; 50% inhibition of growth, 18 h; mean of three experiments
S. aureus (ATCC BAA-44) = conditions: ATCC BAA-44, 18 h
HIV = assay: Inhibition of HIV infectivity by gp340-derived peptides; format: cell-based; conditions: peptide concentrations up to 10 ug/ml
[6] = tested on: HIV-1 attachment to and infection of H9 cells; assay: Viral attachment assay; format: cell-based; conditions: for cell-associated virus (HIV-1 attachment to target cells): H9 cells, cell-associated p24 after virus exposure
Procedure: FIG. 8. Effect of gp-340 or N-SRCR on HIV-1 attachment and infection of cells. The H9 cells were treated with increasing concentrations of gp-340 (A and B) or N-SRCR (C) before and during HIV-1 exposure. After 4 hours, the cells were extensively washed of virus and either treated with or without trypsin at room temperature for 10 min and lysed for total cell-associated p24 measurement or re-fed with fresh medium to continue culture for 4 days to determine infection (data only for gp-340 shown). The values were average of triplicate wells and bars represent standard errors.
0.5×10^6 H9 cells were pre-incubated with purified gp-340 ranging from 2 to 10 μg/ml, or N-SRCR at 0.5 μg/ml at 37° C. for 60 min before viral exposure at 50 ng/ml p24 at 37° C. for 3 hours. The exposed cells were washed repeatedly to remove unbound virus, either lysed for cell-associated viral p24 measurement, treated with trypsin for 5 min before lysis, or refed with culture medium and maintained in culture for an additional 4 days. Culture medium was collected, cleared of cellular debris, lysed and viral p24 was measured.

[7] = tested on: HIV-1 gp120MN V3 peptide P6283; conditions: Ca++-dependent, ELISA
HIV-1 NL4-3 = assay: HIV inhibition assay, p24 readout; conditions: H9 cells, p24 in culture supernatant
HIV-1 BaL = assay: HIV inhibition assay, p24 readout; conditions: IL-2 stimulated human PBMCs, p24 in culture supernatant
HIV-1 IIIB = assay: HIV inhibition assay, p24 readout
gp120 = gp120 (Human immunodeficiency virus type 1 group M subtype B, UniProt P03375); conditions: read-out: Kd of gp340 binding to gp120; earlier studies of the applicants
[8] = H9 cells, p24 in culture supernatant

CC(=O)N[C@@H](Cc1c[nH]c2ccccc12)C(=O)N[C@@H](CCCNC(=N)N)C(=O)N[C@@H](Cc1c[nH]c2ccccc12)C(=O)N[C@@H](CCCNC(=N)N)C(=O)NCCCC[C@H](NC(=O)[C@H](CCCNC(=N)N)NC(=O)[C@H](Cc1c[nH]c2ccccc12)NC(=O)[C@H](CCCNC(=N)N)NC(=O)[C@H](Cc1c[nH]c2ccccc12)NC(C)=O)C(=O)NCCCC[C@H](NC(=O)[C@H](CCCCNC(=O)[C@H](CCCNC(=N)N)NC(=O)[C@H](Cc1c[nH]c2ccccc12)NC(=O)[C@H](CCCNC(=N)N)NC(=O)[C@H](Cc1c[nH]c2ccccc12)NC(C)=O)NC(=O)[C@H](CCCNC(=N)N)NC(=O)[C@H](Cc1c[nH]c2ccccc12)NC(=O)[C@H](CCCNC(=N)N)NC(=O)[C@H](Cc1c[nH]c2ccccc12)NC(C)=O)C(=O)NCCC(N)=O [(Ac—WRWR)4-lys2-Lys-Beta-Ala-NH2] (I: Ac-WRWRK([Arg-Trp-Arg-Trp-Ac])K[βAla]-NH2 / II: Ac-WRWRK([Arg-Trp-Arg-Trp-Ac]); amide I:6-II:C)
Hemolytic activity HD50 (fresh sheep erythrocytes [1]): 137 µg/mL | Antimicrobial activity IC50 (E. Coli (D31) [2]): 9.5 µg/mL | Antimicrobial activity IC50 (S Aureus (ATCC BAA-44)): 12.5 µg/mL | Antimicrobial activity IC50 [3]: 15.5 µg/mL

N=C(N)NCCC[C@H](NC(=O)[C@H](Cc1c[nH]c2ccccc12)NC(=O)[C@@H](N)CCCNC(=N)N)C(=O)N[C@@H](Cc1c[nH]c2ccccc12)C(N)=O [(RW)2—NH2] (H-RWRW-NH2)
HD50 Red blood cell (fresh sheep erythrocytes [4]): 3700 µM | IC50 (E. Coli (D31) [5]): 730 µM | IC50 (S. aureus (ATCC BAA-44)): 210 µM

N=C(N)NCCC[C@H](NC(=O)[C@H](Cc1c[nH]c2ccccc12)NC(=O)[C@H](CCCNC(=N)N)NC(=O)[C@H](Cc1c[nH]c2ccccc12)NC(=O)[C@H](CCCNC(=N)N)NC(=O)[C@H](Cc1c[nH]c2ccccc12)NC(=O)[C@H](CCCNC(=N)N)NC(=O)[C@H](Cc1c[nH]c2ccccc12)NC(=O)[C@@H](N)CCCNC(=N)N)C(=O)N[C@@H](Cc1c[nH]c2ccccc12)C(N)=O [(RW)5—NH2]
HD50 Red blood cell (fresh sheep erythrocytes [4]): 76 µM | IC50 (E. Coli (D31) [5]): 6.2 µM | IC50 (S. aureus (ATCC BAA-44)): 3.6 µM

N=C(N)NCCC[C@H](N)C(=O)N[C@@H](Cc1c[nH]c2ccccc12)C(N)=O [RW—NH2] (H-Arg-Trp-NH2)
HD50 Red blood cell (fresh sheep erythrocytes [4]): 8900 µM | IC50 (E. Coli (D31) [5]): 4300 µM | IC50 (S. aureus (ATCC BAA-44)): 2100 µM

GRVEYLXBGSW (GRVEVLYRGSW) [11 mer]
inhibition of HIV infectivity (anti-HIV activity) (HIV): low, but measurable anti-HIV activity

N-SRCR: recombinant N-terminal gp340 fragment: first SRCR domain and half of first SID, with His-6 and HSV gD tags, 35 kDa
cell-associated virus (HIV-1 attachment to target cells) [6]: did not effect viral attachment | concentration not toxic to H9 cells (H9 cells): up to 10 μg/ml | binding to immobilized gp120 (HIV-1 gp120; gp120 captured with antibody D7324, ELISA): shown to bind immobilized gp120 | binding to gp120 upon sCD4 treatment of gp120 (HIV-1 gp120; sCD4 pre-binding, detected by Ab-1527): significantly increased | binding to the peptide P6283 [7]: comparable to binding of gp-340 | estimated ID90 for NL4-3 (HIV-1 NL4-3): 1.5 µg/mL | estimated ID90 for BaL (HIV-1 BaL): 1.1 µg/mL | ID75 for IIIB (HIV-1 IIIB; [8]): 2 µg/mL | ID90 for IIIB (HIV-1 IIIB; [8]): not achieved

QGRVEVLYRGSWGEVC [16 mer]
inhibition of HIV infectivity (anti-HIV activity) (HIV): only modest inhibition of HIV infectivity

RWRWRW-NH2 [(RW)3—NH2]
HD50 Red blood cell (fresh sheep erythrocytes [4]): 210 µM | IC50 (E. Coli (D31) [5]): 16 µM | IC50 (S. aureus (ATCC BAA-44)): 8 µM

RWRWRWRW-NH2 [(RW)4—NH2]
HD50 Red blood cell (fresh sheep erythrocytes [4]): 100 µM | IC50 (E. Coli (D31) [5]): 9.6 µM | IC50 (S. aureus (ATCC BAA-44)): 5.1 µM

gp340: 340 kDa salivary agglutinin glycoprotein of the SRCR superfamily; recombinant or purified from saliva
viral replication in the treated cells ([6]; H9 cells cultured 4 days after exposure, p24): significantly inhibited | cell-associated virus (HIV-1 attachment to target cells) [6]: not affected | Kd (gp120): 0.0058 µM | blocking HIV-1 infection by expressed full length gp340 (HIV-1 IIIB; culture supernatant of transfected 293 cells, compared with SAG from saliva): as active in blocking HIV-1 infection as SAG purified from human saliva
